The numbers were not newly measured in patent US20210251923A1, “METHODS FOR IMPROVING NEUROLOGICAL DISEASES AND DISORDERS” (CuraSen Therapeutics, Inc., priority 2018, published 2021), which cites them from elsewhere.

The test system of the data set is Ts65Dn mice. The following applies: increasing brain NE levels.

As for `N[C@H](C(=O)O)[C@H](O)c1ccc(O)c(O)c1` [L-DOPS, L-threo-3,4-dihydroxyphenylserine], the contextual learning result is given as “restored contextual learning”.
